What was measured:
[1] = molecular target: T1, human α1D‐adrenoceptor (full length) (Homo sapiens, UniProt P25100); assay: ^3H‐cAMP accumulation, CHO‐α1D cells; format: cell-based; settings: cAMP accumulation without forskolin
T1 construct: human α1D‐adrenoceptor (full length) were used; expressed in transfected cells; host or cells: CHO-K1
T1 sequence (P25100 1-572): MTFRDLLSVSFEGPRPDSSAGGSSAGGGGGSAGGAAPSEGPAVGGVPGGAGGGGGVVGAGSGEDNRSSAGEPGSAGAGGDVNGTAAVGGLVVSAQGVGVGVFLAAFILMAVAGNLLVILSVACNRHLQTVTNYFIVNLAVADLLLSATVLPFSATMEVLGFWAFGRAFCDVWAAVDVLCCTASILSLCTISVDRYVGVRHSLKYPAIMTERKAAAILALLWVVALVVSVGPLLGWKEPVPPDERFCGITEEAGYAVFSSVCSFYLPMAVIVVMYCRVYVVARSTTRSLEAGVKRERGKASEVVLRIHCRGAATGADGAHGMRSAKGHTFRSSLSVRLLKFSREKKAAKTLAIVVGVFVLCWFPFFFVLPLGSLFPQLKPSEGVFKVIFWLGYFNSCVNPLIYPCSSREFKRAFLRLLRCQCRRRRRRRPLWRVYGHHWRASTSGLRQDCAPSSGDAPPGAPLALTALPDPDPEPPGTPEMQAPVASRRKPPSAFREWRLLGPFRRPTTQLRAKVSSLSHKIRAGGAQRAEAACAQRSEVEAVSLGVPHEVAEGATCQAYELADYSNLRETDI

[2] = test system: parental CHO cell line without any transfected receptors; assay: Forskolin‐stimulated cAMP accumulation, parent CHO cells without transfected receptors; format: cell-based, Chinese hamster; settings: CHO cells without transfected receptors
[3] = molecular target: T1, human α1D‐adrenoceptor (full length); assay: ^3H‐prazosin whole‐cell radioligand binding, CHO‐α1D cells; settings: for Kd: CHO‐α1D cells; for Affinity selectivity ratio α1B vs α1D: higher affinity for α1D than α1B
human α1B‐adrenoceptor [4] = molecular target: T2, human α1B‐adrenoceptor (Homo sapiens, UniProt P35368); assay: ERK1/2‐phosphorylation (Surefire Alphascreen), CHO‐α1B cells; format: cell-based; settings: CHO‐α1B cells, for bi‐phasic responses the initial stimulatory part; for EC50: read-out: ERK1/2‐phosphorylation Log EC50 (converted); for ERK1/2‐phosphorylation % PDBu: maximal response as % PDBu response
T2 construct: expressed in transfected cells; host or cells: CHO-K1
T2 sequence (P35368 1-520): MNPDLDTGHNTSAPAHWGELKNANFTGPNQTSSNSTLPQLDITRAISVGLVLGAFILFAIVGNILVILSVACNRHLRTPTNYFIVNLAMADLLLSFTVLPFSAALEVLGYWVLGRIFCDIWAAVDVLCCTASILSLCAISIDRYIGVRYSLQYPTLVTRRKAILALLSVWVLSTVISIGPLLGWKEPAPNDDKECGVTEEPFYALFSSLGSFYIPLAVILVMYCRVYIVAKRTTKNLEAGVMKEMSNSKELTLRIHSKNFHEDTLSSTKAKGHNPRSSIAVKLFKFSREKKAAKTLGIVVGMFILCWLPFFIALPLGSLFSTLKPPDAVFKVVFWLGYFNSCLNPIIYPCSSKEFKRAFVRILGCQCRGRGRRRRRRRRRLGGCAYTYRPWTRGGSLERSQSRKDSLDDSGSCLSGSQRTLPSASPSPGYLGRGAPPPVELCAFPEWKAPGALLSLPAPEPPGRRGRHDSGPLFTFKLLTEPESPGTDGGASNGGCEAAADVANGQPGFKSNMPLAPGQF

[5] = molecular target: T1, human α1D‐adrenoceptor (full length); assay: ^3H‐cAMP accumulation in the presence of 10 μM forskolin, CHO‐α1D cells; format: cell-based; settings: CHO‐α1D cells; for cAMP (in presence of forskolin) Fold increase: fold increase of the forskolin response
human α1A‐adrenoceptor [6] = molecular target: T3, human α1A‐adrenoceptor (Homo sapiens, UniProt P35348); assay: ^3H‐cAMP accumulation, CHO‐α1A cells; format: cell-based; settings: CHO‐α1A cells; for EC50: 5 h, read-out: cAMP accumulation Log EC50 (converted); for cAMP accumulation % forskolin: % of 10 µM forskolin response
T3 construct: expressed in transfected cells; host or cells: CHO-K1
T3 sequence (P35348 1-466): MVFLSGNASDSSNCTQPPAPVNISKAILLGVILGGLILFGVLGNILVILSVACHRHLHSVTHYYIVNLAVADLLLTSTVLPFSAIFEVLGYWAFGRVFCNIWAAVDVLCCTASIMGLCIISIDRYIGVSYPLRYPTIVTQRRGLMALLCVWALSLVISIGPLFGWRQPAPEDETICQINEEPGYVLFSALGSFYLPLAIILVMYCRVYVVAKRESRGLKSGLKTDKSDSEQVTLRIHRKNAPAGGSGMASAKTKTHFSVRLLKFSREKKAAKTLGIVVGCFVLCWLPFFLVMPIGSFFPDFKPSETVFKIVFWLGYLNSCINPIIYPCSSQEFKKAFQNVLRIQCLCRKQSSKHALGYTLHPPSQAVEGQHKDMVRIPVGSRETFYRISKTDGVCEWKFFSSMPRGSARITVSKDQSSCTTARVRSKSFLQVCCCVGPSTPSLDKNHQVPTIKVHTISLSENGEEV

human α1A‐adrenoceptor [7] = molecular target: T3, human α1A‐adrenoceptor; assay: ^3H‐cAMP accumulation in the presence of 10 μM forskolin, CHO‐α1A cells; format: cell-based; settings: CHO‐α1A cells; for EC50: 10 μM forskolin, read-out: cAMP accumulation (in presence of forskolin) Log EC50 (converted); for cAMP accumulation (in presence of forskolin) Fold increase: fold increase of the forskolin response
[8] = molecular target: T1, human α1D‐adrenoceptor (full length); assay: Intracellular free calcium mobilization, CHO‐α1D cells; format: cell-based; settings: CHO‐α1D cells; for Log efficacy ratio KD /EC50: intrinsic efficacy ratio, binding KD / calcium EC50; for Intracellular calcium release % ionomycin: maximal response as % of 10 µM ionomycin
human α1A‐adrenoceptor [9] = molecular target: T3, human α1A‐adrenoceptor; assay: Intracellular free calcium mobilization, CHO‐α1A cells; format: cell-based; settings: CHO‐α1A cells; for Log efficacy ratio KD /EC50: binding KD and calcium EC50; for EC50: given as log EC50 (negative), read-out: Intracellular calcium release Log EC50 (converted); for Intracellular calcium release % ionomycin: maximal response as % of 10 µM ionomycin
[10] = test system: parental CHO cell line without any transfected receptors; assay: ERK1/2‐phosphorylation, parent CHO cells without transfected receptors; format: cell-based, Chinese hamster; settings: for Emax at 100 µM: Cricetulus griseus, CHO, read-out: ERK1/2-phosphorylation % PDBu at 100μM
human α1B‐adrenoceptor [11] = molecular target: T2, human α1B‐adrenoceptor; assay: Intracellular free calcium mobilization, CHO‐α1B cells; format: cell-based; settings: CHO‐α1B cells; for EC50: given as log EC50 (negative numbers), read-out: Intracellular calcium release Log EC50 (converted); for Log efficacy ratio KD /EC50: intrinsic efficacy ratio, KD from binding / EC50 calcium; for Intracellular calcium release % ionomycin: maximal response as % of 10 µM ionomycin response
human α1B‐adrenoceptor [12] = molecular target: T2, human α1B‐adrenoceptor; assay: ^3H‐prazosin whole‐cell radioligand binding, CHO‐α1B cells; settings: CHO‐α1B cells
human α1A‐adrenoceptor [13] = molecular target: T3, human α1A‐adrenoceptor; assay: ^3H‐prazosin whole‐cell radioligand binding, CHO‐α1A cells; settings: for Kd: CHO‐α1A cells, given as log KD (negative), mean ± SEM; for Affinity selectivity ratio α1A vs α1B: higher affinity for α1A than α1B; for Affinity selectivity ratio α1A vs α1D: higher affinity for α1A than α1D
[14] = given as log KD (negative), mean ± SEM, 'early plateau' = specific binding not fully inhibited
[15] = in presence of forskolin, log values given negative
[16] = 3H‐prazosin binding Log KD, whole‐cell binding (from Table 1), log values given negative

| SMILES | cAMP Log EC50 [1] | Kd [3, 14] | Affinity selectivity ratio α1B vs α1D [3] | EC50 (human α1B‐adrenoceptor [4]) | ERK1/2‐phosphorylation % PDBu (human α1B‐adrenoceptor [4]) | cAMP (in presence of forskolin) Fold increase [5] | EC50 (human α1A‐adrenoceptor [6]) | cAMP accumulation % forskolin (human α1A‐adrenoceptor [6]) | EC50 (human α1A‐adrenoceptor [7]) | cAMP accumulation (in presence of forskolin) Fold increase (human α1A‐adrenoceptor [7]) | Log efficacy ratio KD /EC50 [8] | Intracellular calcium release % ionomycin [8] | Log efficacy ratio KD /EC50 (human α1A‐adrenoceptor [9]) | EC50 (human α1A‐adrenoceptor [9]) | Intracellular calcium release % ionomycin (human α1A‐adrenoceptor [9]) | Emax at 100 µM [10] | EC50 (human α1B‐adrenoceptor [11]) | Log efficacy ratio KD /EC50 (human α1B‐adrenoceptor [11]) | Intracellular calcium release % ionomycin (human α1B‐adrenoceptor [11]) | Affinity selectivity ratio α1A vs α1B (human α1A‐adrenoceptor [13]) | other results |
| --- | --- | --- | --- | --- | --- | --- | --- | --- | --- | --- | --- | --- | --- | --- | --- | --- | --- | --- | --- | --- | --- |
| c1ccc(C2CC2)c(OCC2=NCCN2)c1 [Cirazoline] | No response | 2.95 µM | 2.7 fold | 0.12 µM | 82.5 ± 8.6% | No response | 0.123 µM | 108.9 ± 6.5% | 0.0107 µM | 2.38 ± 0.15 fold | 1.37 | 17.3 ± 3.8% | 3.01 | 0.000661 µM | 58.2 ± 2.0% | 33.4 ± 7.6% | 0.00891 µM | 2.95 | 53.3 ± 1.5% | 11.7 fold | cAMP accumulation (in presence of forskolin) % forskolin-stim cAMP at 100μM ([2]; response at 100μM only, EC50 not obtainable, % of forskolin-stimulated cAMP): 82.4 ± 2.8%; cAMP (in presence of forskolin) Log EC50 [5, 15]: No response; Intracellular calcium release Log EC50 ([8]; log values given negative): −6.90 ± 0.09; Kd (human α1B‐adrenoceptor [12]; given as log KD (negative), mean ± SEM): 7.94 µM; Kd (human α1A‐adrenoceptor [13]): 0.676 µM; Affinity selectivity ratio α1A vs α1D (human α1A‐adrenoceptor [13]): 4.4 fold |
| C[C@H](N)[C@H](O)c1cccc(O)c1 [Metaraminol] | No response | 56.2 µM | >17.8 fold | 1.45 µM | 92.2 ± 3.9% | 1.19 ± 0.04 | – | – | 0.813 µM | 2.54 ± 0.11 fold | 1.87 | 23.1 ± 3.8% | 3.14 | 0.0617 µM | 66.9 ± 3.2% | – | 0.112 µM | >3.95 | 60.1 ± 3.1% | >11.7 fold | cAMP accumulation (in presence of forskolin) Log EC50 [2]: No response; Kd [3, 16]: 56.2 µM; Affinity selectivity ratio α1A vs α1D ([3]; higher affinity for α1D than α1A): 1.5 fold; EC50 [5, 15]: 0.324 µM; cAMP accumulation % forskolin at 100 µM (human α1A‐adrenoceptor [6]; response at 100 μM ligand, no EC50 obtained): 122.7 ± 9.8%; EC50 ([8]; log values given negative, read-out: Intracellular calcium release Log EC50 (converted)): 0.759 µM; ERK1/2-phosphorylation % PDBu ([10]; CHO cells without transfected receptors, maximal response as % of PDBu (10μM) response, mean ± s.e.m.): No response; ERK1/2-phosphorylation Log EC50 ([10]; CHO cells without transfected receptors, mean ± s.e.m.): No response; IC50 (human α1B‐adrenoceptor [12]; printed as IC50> log value): > 1000 µM; Kd (human α1A‐adrenoceptor [13]): 85.1 µM |
| Clc1ccc2nsnc2c1NC1=NCCN1 [Tizanidine] | – | – | 11.5 fold | 0.288 µM | 57.7 ± 5.3% | – | 1.66 µM | 65.6 ± 6.5% | 0.123 µM | 2.36 ± 0.10 fold | – | – | 1.98 | 0.0363 µM | 53.5 ± 1.6% | 6.7 ± 3.3% | 0.0891 µM | 2.70 | 48.8 ± 1.8% | 12.9 fold | cAMP accumulation (in presence of forskolin) Log EC50 [2]: No response; Kd [3, 16]: 3.89 µM; Kd ([3]; Log KD α1D, ^3H‐prazosin whole cell binding, given as log KD (negative), mean ± SEM, 'early plateau' = specific binding not fully inhibited): 3.89 µM; Intracellular calcium release % Ionomycin at 100 µM ([8]; response at 100 µM ligand (no EC50 given)): 2.5 ± 0.8%; Kd (human α1B‐adrenoceptor [12]; Log KD α1B, ^3H‐prazosin whole cell binding, given as log KD (negative), mean ± SEM): 44.7 µM; Kd (human α1B‐adrenoceptor [12]; Log KD, ^3H‐prazosin binding, whole‐cell binding (from Table 1), given as log KD (negative numbers)): 44.7 µM; Kd (human α1A‐adrenoceptor [13]; Log KD α1A, ^3H‐prazosin whole cell binding): 3.47 µM; Affinity selectivity ratio α1A vs α1D (human α1A‐adrenoceptor [13]): 1.1 fold |
